Data as given in patent US7019034B2, “Compositions and methods for reducing serum glucose and triglyceride levels in diabetic mammals” (Allergan, Inc., priority 2003, dated 2006).

Key:
[1] = target: T1, RXRα (Homo sapiens, UniProt P19793); assay: holoreceptor transactivation assay, RXRα; format: cell-based
T1 construct: expressed in transfected cells
T1 sequence (P19793 1-462): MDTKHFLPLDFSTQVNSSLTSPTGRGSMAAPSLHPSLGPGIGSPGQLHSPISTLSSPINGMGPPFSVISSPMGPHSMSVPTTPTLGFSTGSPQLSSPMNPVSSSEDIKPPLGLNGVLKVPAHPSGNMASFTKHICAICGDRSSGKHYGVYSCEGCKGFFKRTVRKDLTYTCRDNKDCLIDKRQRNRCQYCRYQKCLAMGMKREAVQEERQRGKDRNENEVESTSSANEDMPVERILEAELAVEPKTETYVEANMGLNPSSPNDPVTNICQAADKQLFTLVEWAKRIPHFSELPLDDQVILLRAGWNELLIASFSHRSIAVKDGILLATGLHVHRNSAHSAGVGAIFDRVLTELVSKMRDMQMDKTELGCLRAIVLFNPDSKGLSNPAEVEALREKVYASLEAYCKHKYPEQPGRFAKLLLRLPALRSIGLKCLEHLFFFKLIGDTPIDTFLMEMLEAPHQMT
Source text: A holoreceptor transactivation assay and a ligand binding assay which measure the antagonist/agonist like activity of the compounds of the invention, or their ability to bind to the several retinoid receptor subtypes, respectively, are described in published PCT Application No. WO WO93/11755 (particularly on pages 30–33 and 37–41) published on Jun. 24, 1993, the specification of which is also incorporated herein by reference. […] The results obtained in this assay are expressed in EC50 numbers, as they are also in the chimeric receptor transactivation assay. The results of the ligand binding assay are expressed in Ki numbers. (See Cheng et al. Biochemical Pharmacology Vol. 22 pp 3099–3108, expressly incorporated herein by reference.)
(§1) Particularly, the transactivation data pertaining to activation of the RAR receptors were obtained in the chimeric assay, and the transactivation data pertaining to the activation of RXR receptors were obtained in the holoreceptor assay.
(§2) In Table 1 NA stands for not active at all as an agonist. ND stands for not determined. The first row of numbers pertaining to each compound is the measured EC50 number. […] The third row of numbers pertaining to each compound is the binding Ki number.

[2] = tested on: diabetic db/db mice; assay: serum glucose in diabetic db/db mice, 7 days oral dosing; format: in vivo; conditions: for Glucose: 50 mg/kg once daily oral gavage, mean +/- SD
Description: (§3) Effects of RXR agonists on serum glucose and triglyceride were studied in diabetic db/db mice. […] Briefly, animals were dosed once daily by oral gavage using corn oil vehicle for a period of 7 consecutive days. Serum samples were collected on day 1 (first day of dosing) and day 7 at hour 0 (immediately prior to dosing) and hour 3 (approximately 3 hours after dosing). Serum glucose and triglyceride levels of these samples were measured as described in the reference manuals: Glucose/HK. Boehringer Mannheim Corporation, 9115 Hague Road, Indianapolis, Ind., USA and Triglycerides/GPO. Roche Diagnostics Corporation, 9115 Hague Road, Indianapolis, Ind., USA, expressly incorporated herein. Only those animals with glucose levels of higher than 300 mg/dl at 0 hour on day 1 were considered as diabetic and included in data analysis.
(§4) A measured amount of dosing solution was withdrawn into a metal feeding tube attached to a marked syringe. Animals were restrained by grasping of their back skin while the feeding tube was gently inserted into their mouth and into esophagus. A fixed amount of the dosing solution was displaced into the esophagus/stomach of the animal by pushing the plunger of the syringe. Serum samples were collected from the retro-orbital sinus while the animals were anesthetized. These samples were analyzed by using commercially available kits from Boehringer Manheim for their glucose levels and Roche Diagnostics for their triglyceride levels in a Boehringer Manheim Hatachi Clinical Chemistry Analyzer.
(§5) For glucose assay, an enzymatic reaction using hexokinase and glucose-6-phosphodehydrogenase to catalyze glucose to gluconate-6phosphate and NADPH was employed. The amount of NADPH formed during these reactions was equivalent to the amount of glucose in the serum and was measured with a spectrophotometer. For triglycerides, a series of enzymatic reactions which included lipase, glycerol kinase and glycerol phosphate oxidase to formed dihydroacetone phosphate and peroxidase. The peroxidase produced catalyzed a reaction between peroxide and 4-aminophenazone and 4-chlorophenol in a Trinder reaction to generate a color change. This color change was measured by a spectrophotometer and reflected the amount of triglyceride in the sample.

[3] = tested on: diabetic db/db mice; assay: serum triglycerides in diabetic db/db mice, 7 days oral dosing; format: in vivo; conditions: for Triglycerides: 50 mg/kg once daily oral gavage, mean +/- SD
Description: as §3, §4, §5

[4] = tested on: young db/db mice; assay: serum thyroxine (T4) in young db/db mice, 14 days oral dosing; format: in vivo
Description: In another study the efficacy of RXR agonists in the prevention of diabetes was tested in young db/db mice. […] Serum samples were analyzed by using commercially available kits from Boehring Manheim for their thyroxine (T4) levels in a Boehringer Manheim Hatachi Clinical Chemistry Analyzer as described in the reference manual of Boehringer Mannheim Corporation, 9115 Hague Road, Indianapolis, Ind., USA, expressly incorporated herein.

[5] = target: T2, RARγ (Homo sapiens, UniProt P13631); assay: chimeric receptor transactivation assay, RARγ; format: cell-based
T2 sequence (P13631 185-419 limits assumed): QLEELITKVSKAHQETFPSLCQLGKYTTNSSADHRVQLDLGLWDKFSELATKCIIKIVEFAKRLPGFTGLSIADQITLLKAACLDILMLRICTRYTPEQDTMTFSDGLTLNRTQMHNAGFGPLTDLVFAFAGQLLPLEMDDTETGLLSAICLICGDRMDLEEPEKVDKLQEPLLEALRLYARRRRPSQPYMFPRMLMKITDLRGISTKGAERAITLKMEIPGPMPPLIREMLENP
Source text: The specification of U.S. Pat. No. 5,455,265 is hereby expressly incorporated by reference.
as §1, with “Table 1 discloses the activity of certain exemplary compounds of the invention in the above-described receptor transactivation and binding assays. Particularly,” for “Particularly,”
Efficacy in a transactivation assay is expressed as a percentage of the maximum potency attained by the compound compared to a standard which, in this case, is the compound named (2E,4E,1′S,2′S)-3-methyl-5-[2′-methyl-2′-(5,5,8,8-tetramethyl-5,6,7,8-tetrahydro-naphthalen-2-yl)-cyclopropyl]-penta-2,4-dienoic acid.
as §2

[6] = Day 1, 0 hr (immediately prior to dosing)

EC50 ([1]; NA = not active at all as an agonist, read-out: RXR Trans. EC50 α) [nM]	RXR α efficacy in percentage as compared to the standard compound ([1]; number in brackets) [%]	effect on serum triglyceride (in words) ([3]; mouse, in vivo)	Serum thyroxine ([4]; 50 mg/kg orally for 14 days, mean +/- SD (n = 7)) [µg/dL]	effect on serum T4 (in words) ([4]; mouse, in vivo)	EC50 ([5]; NA = not active at all as an agonist, read-out: RAR Trans. EC50 γ) [nM]	RAR γ efficacy in percentage as compared to the standard compound ([5]; number in brackets) [%]	Compound	Glucose [2, 6] [mg/dL]	Glucose ([2]; Day 1, 3 hr) [mg/dL]	Glucose ([2]; Day 7, 0 hr) [mg/dL]	Glucose ([2]; Day 7, 3 hr) [mg/dL]	effect on serum glucose in diabetic mouse (in words) ([2]; mouse, in vivo)	Triglycerides [3, 6] [mg/dL]	Triglycerides ([3]; Day 1, 3 hr) [mg/dL]	Triglycerides ([3]; Day 7, 0 hr) [mg/dL]	Triglycerides ([3]; Day 7, 3 hr) [mg/dL]
0.8	17	does not affect	1.30 ± 0.28	does not affect			CCOc1cc2c(cc1\C(CC)=C(F)/C=C/C(C)=C/C(=O)O)C(C)(C)CCC2(C)C [Compound 2, (2E,4E,6E)-7-(3-Ethoxy-5,5,8,8-tetramethyl-5,6,7,8-tetrahydronaphthalen-2-yl)-6-fluoro-3-methylnona-2,4,6-trienoic acid]	529 ± 123	436 ± 127	414 ± 105	350 ± 140	capable of lowering serum glucose	168 ± 74	142 ± 94	157 ± 106	95 ± 33
					> 1000	15	CCCOc1cc2c(cc1\C(C)=C(F)/C=C/C(C)=C/C(=O)O)C(C)(C)CCC2(C)C [Compound 4]									
